Laboratory results as given in patent US20240115592A1, “PGC-1alpha EXPRESSION PROMOTING AGENT, MUSCLE-BUILDING AGENT AND MITOCHONDRIA ACTIVATING AGENT” (YAMASA CORPORATION, priority 2020, published 2024).

Experiments:
Myogenin [1] = assay: Myogenin gene expression promoting effect (II) (Example 4); assay type: cell-based, Mouse; settings: C2C12 cells, 4-6 days, vs control
Description: (§1) Mouse myoblast cell line C2C12 cells (RIKEN BRC, RCB0987) were suspended in growth medium (Dulbecco's modified Eagle's Medium supplemented with 10% FBS, 100 units/ml of penicillin, 100 μg/ml of streptomycin), seeded in 24-well plates, and incubated in a 37° C., 5% CO2 incubator until the cell density reached 70-90%. […] After culturing the cells for 4-6 days while exchanging the medium once every 2 days, the medium was removed, and total RNA was extracted from the cells using the RNeasy Mini kit (QIAGEN).
(§2) A level of Myogenin mRNA expression, a marker gene for myotube cell differentiation, was evaluated by the following method:
(§3) Cell culture and treatment with the test substances, total RNA extraction and reverse transcription reaction were performed as in Example 2. Real-time PCR analysis was used to determine mRNA expression levels of Myogenin and β-actin as an internal standard. Statistical analysis was also performed in the same method as that of Example 1.

PGC-1α [2] = assay: PGC-1α gene expression promoting effect (II), real-time PCR (Example 2); assay type: cell-based, Mouse; settings: C2C12 cells, 4-6 days, corrected by β-actin, vs control; FIG. 2
Description: as §1
Using the total RNA as a template, a reverse transcription reaction solution was prepared using the ReverTra Ace® qPCR RT Kit (Toyobo). The reverse transcription reaction solution, GoTaq® qPCR Master Mix (Promega), and a real-time PCR device, Thermal Cycler Dice Real Time System (Takara Bio), were used to measure the mRNA expression levels of PGC-1α and β-actin as an internal standard. Analysis was performed by relative quantification, and the mRNA expression level was corrected using the β-actin mRNA expression level as an endogenous control. Statistical analysis was performed by t-test or Dunnett's multiple comparison test using the differentiation induction medium treatment group without the test substances as a control. The threshold of statistical significance was set to 5%.

Myh7 [3] = assay: Myh7 gene expression promoting effect (II) (Example 6); assay type: cell-based, Mouse; settings: C2C12 cells, 4-6 days, vs control
Description: as §1
(§4) A level of Myh7 mRNA expression encoding a slow-muscle type myosin protein was evaluated using the following method:
as §3, with “Myh7” for “Myogenin”

C2C12 cells [4] = assay: Mitochondrial DNA copy number increasing effect (II) (Example 8); assay type: cell-based, Mouse; settings: 6 days, n=3, FIG. 10
Description: Cell culture and addition of test substances were carried out in the same method as that of Example 2. The cells were cultured for 6 days, the medium was then removed and total DNA was extracted from the cells using DNeasy Blood & Tissue kit (QIAGEN).
Extracted DNA, GoTaq® qPCR Master Mix (Promega) and a real-time PCR device, Thermal Cycler Dice Real Time System (Takara Bio), were used to determine COX2 (Cytochrome c oxidase subunit 2), a gene encoded in the mitochondrial DNA, and PPIA (Cyclophilin A), a gene encoded in […] DNA, as an internal standard.
The amount of COX2 present relative to the amount of PPIA present was evaluated as the mitochondrial DNA copy number. Statistical analysis was performed by the same method as that of Example 1. This Example was studied with n=3.

C2C12 cells [5] = assay: Myotube cell diameter increasing effect (II) (Example 10); assay type: cell-based, Mouse; settings: 5-6 days; for myotube cell diameter (photographs): FIG. 13; for myotube cell diameter (ImageJ, average of 50 cells): vs control, FIGS. 14 to 17
Description: Cell culture and addition of test substances were carried out by the same method as that of Example 2. The cells were cultured for 5-6 days while exchanging a differentiation inducing medium containing the test substances once every 2 days, and five positions near the center of the wells were then photographed at magnifications of 100.
Also, using ImageJ image analysis software, the diameters of ten myotube cells per a photograph were measured in order from the myotube cell having the largest diameter, and an average of 50 cells was determined to be the diameter of the myotube cell in each well. Statistical analysis was also performed by the same method as that of Example 2.

mitochondria = settings: Patent Literature 3; cited from earlier work
PGC-1α [6] = assay: PGC-1α gene expression promoting effect (I), real-time PCR (Example 1); assay type: cell-based, Mouse; settings: C2C12 cells, 1 mM or 5 mM disodium cytidylate, 6 days, corrected by β-actin, vs control; FIG. 1
Description: Mouse myoblast cell line C2C12 cells (RIKEN BRC, RCB0987) were suspended in growth medium (Dulbecco's modified Eagle's Medium supplemented with 10% FBS, 100 units/ml of penicillin, 100 μg/ml of streptomycin), seeded in 24-well plates, and incubated in a 37° C., 5% CO2 incubator until the cell density reached 70-90%. […] After culturing the cells for 6 days while exchanging the medium once every 2 days, the medium was removed, and total RNA was extracted from the cells using the RNeasy Mini kit (QIAGEN). Unless otherwise stated, each sample n=6 was used for the study, including the following Examples. Using the total RNA as a template, a reverse transcription reaction solution was prepared using the ReverTra Ace® qPCR RT Kit (Toyobo). The reverse transcription reaction solution, GoTaq® qPCR Master Mix (Promega), and a real-time PCR device, Thermal Cycler Dice Real Time System (Takara Bio), were used to measure mRNA expression levels of PGC-1α and β-actin as an internal standard. Analysis was performed by relative quantification, and mRNA expression levels were corrected using the β-actin mRNA expression level as an endogenous control. Dunnett's multiple comparison test was performed for statistical analysis. The threshold of statistical significance was set to 5%.

Myogenin [7] = assay: Myogenin gene expression promoting effect (I) (Example 3); assay type: cell-based, Mouse; settings: C2C12 cells, disodium cytidylate, 6 days, vs control; FIG. 3
Description: as §2
(§5) Mouse myoblast cell line C2C12 cells were suspended in growth medium, seeded in 24-well plates, and incubated in a 37° C., 5% CO2 incubator until the cell density reached 70-90%. The growth medium was removed, and exchanged to a differentiation induction medium containing 1 mM disodium cytidylate or 1 mM disodium cytidylate or containing no cytidylic acid. The cells were cultured for 6 days while exchanging the medium once every 2 days. Total RNA extraction and reverse transcription reaction were performed as in Example 1. Real-time PCR analysis was used to determine mRNA expression levels of Myogenin and β-actin as an internal standard. Statistical analysis was performed in the same method as that of Example 1.

Myh7 [8] = assay: Myh7 gene expression promoting effect (I) (Example 5); assay type: cell-based, Mouse; settings: C2C12 cells, 5 mM disodium cytidylate, 4 days, vs control; FIG. 6
Description: as §4
as §5, with “5” for “1 mM disodium cytidylate or 1”, “4” for “6”, “days, and the medium was then removed, and the total” for “days. Total”, “Myh7” for “Myogenin”, “Welch's t-test” for “Statistical analysis”, “used for statistical analysis. The threshold for statistical significance was set to 5%.” for “performed in the same method as that of Example 1.”

C2C12 cells [9] = assay: Myotube cell diameter increasing effect (I) (Example 9); assay type: cell-based, Mouse; settings: 6 days; for Average myotube cell diameter: control 53.9
Description: Cell culture and addition of a test substance were carried out by the same method as that of Example 1. The cells were cultured for 6 days while exchanging a differentiation inducing medium containing the test substance once every 2 days, and five positions near the center of the wells were then photographed at magnifications of 100. Using ImageJ image analysis software, the diameters of ten myotube cells per a photograph were measured in order from the myotube cell having the largest diameter, and an average of 50 cells was determined to be the diameter of the myotube cell in each well. Statistical analysis was performed by the same method as that of Example 1. Photographs of representative examples of the respective groups are shown in FIG. 11, and the measured results of the average myotube cell diameter are shown in Table 1 and FIG. 12.

C2C12 cells [10] = assay: Mitochondrial DNA copy number increasing effect (I) (Example 7); assay type: cell-based, Mouse; settings: 1 mM or 5 mM disodium cytidylate, 6 days, n=3, FIG. 9
Description: Cell culture and addition of test substance were carried out by the same method as that of Example 1. The cells were cultured for 6 days while exchanging a differentiation induction medium containing the test substance once every 2 days, the medium was then removed and total DNA was extracted from the cells using DNeasy Blood & Tissue kit (QIAGEN). Extracted DNA, GoTaq® qPCR Master Mix (Promega) and a real-time PCR device, Thermal Cycler Dice Real Time System (Takara Bio), were used to determine COX2 (Cytochrome c oxidase subunit 2), a gene encoded in the mitochondrial DNA, and PPIA (Cyclophilin A), a gene encoded in […] DNA as an internal standard. The amount of COX2 present relative to the amount of PPIA present was evaluated as the mitochondrial DNA copy number. Statistical analysis was performed by the same method as that of Example 1. This Example was studied with n=3.

PGC-1α [11] = settings: neurons; Patent Literature 1; cited from earlier work

SMILES	Myogenin mRNA expression level (Myogenin [1]; FIG. 4)	PGC-1α mRNA expression level (PGC-1α [2])	Myh7 mRNA expression level (Myh7 [3]; FIG. 7)	mitochondrial DNA copy number (COX2 relative to PPIA) (C2C12 cells [4])	myotube cell diameter (photographs) (C2C12 cells [5])	myotube cell diameter (ImageJ, average of 50 cells) (C2C12 cells [5])	Myogenin mRNA expression level (Myogenin [1]; FIG. 5)	other results
O=c1ccn([C@@H]2O[C@H](COP(=O)(O)O)[C@@H](O)[C@H]2O)c(=O)[nH]1 [uridylic acid]	remarkably enhanced	concentration-dependently and remarkably enhanced	remarkably enhanced	concentration-dependently and remarkably enhanced	significantly increased	significantly increased	–	–
O=C(O)c1cc(C(=O)O)c2c(n1)C(=O)C(=O)c1cc(C(=O)O)[nH]c1-2 [pyrroloquinoline quinone]	–	–	–	–	–	–	–	mitochondria activating effects (mitochondria): exhibits mitochondria activating effects
Nc1ccn([C@@H]2O[C@H](CO)[C@@H](O)[C@H]2O)c(=O)n1 [cytidine]	–	–	–	–	significantly increased	concentration-dependently and remarkably increased	excellent myotube cell differentiation promoting effect	Myh7 mRNA expression level (Myh7 [3]; FIG. 8): markedly enhanced
O=c1ccn([C@@H]2O[C@H](CO)[C@@H](O)[C@H]2O)c(=O)[nH]1 [uridine]	–	–	–	–	significantly increased	concentration-dependently and remarkably increased	–	–
Nc1ccn([C@@H]2O[C@H](COP(=O)(O)O)[C@@H](O)[C@H]2O)c(=O)n1 [cytidylic acid]	remarkably enhanced	concentration-dependently and remarkably enhanced	remarkably enhanced	concentration-dependently and remarkably enhanced	significantly increased	concentration-dependently and remarkably increased	remarkably enhanced	PGC-1α mRNA expression level (PGC-1α [6]): concentration-dependently and remarkably enhanced; Myogenin mRNA expression level (Myogenin [7]): concentration-dependently and remarkably enhanced; Myh7 mRNA expression level (Myh7 [8]): markedly enhanced; Average myotube cell diameter (C2C12 cells [9]; 1 mM CMP): 61.1 μm; Average myotube cell diameter (C2C12 cells [9]; 5 mM CMP): 62.5 μm; myotube cell diameter (C2C12 cells [9]; vs control, FIGS. 11 and 12): concentration-dependently and remarkably increased; mitochondrial DNA copy number (COX2 relative to PPIA) (C2C12 cells [10]): concentration-dependently and remarkably enhanced
CCc1oc(=O)c(Cc2c(O)c(C)c(CC)oc2=O)c(O)c1C [Helipyrone A]	–	–	–	–	–	–	–	PGC-1α production (PGC-1α [11]): promotes PGC-1α production in neurons
